Experiment: Downregulation of c-MYC protein expression in human K562 cells assessed as reduction in c-MYC-positive cells at 16 uM after 24 hrs by flow cytometry analysis
Format: functional
Set-up: scale not given: the % may be the effect or the level left

## Cl.Cl.NCCNc1c2c(c(NCCN)c3n[se]nc13)C(=O)c1ccccc1C2=O
  Activity: 53%

Source: ChEMBL document CHEMBL5505988, “Thiadiazole-, selenadiazole- and triazole-fused anthraquinones as G-quadruplex targeting anticancer compounds” (Eur J Med Chem, 2024)
